Patent US20230129485A1, “SYSTEM AND METHOD FOR DETERMINING MATERIAL PROPERTIES OF MOLECULAR SYSTEMS FROM AN AB-INITIO PARAMETERIZED FORCE-FIELD” (InterX, Inc., priority 2021, published 2023)
Read-outs that look alike come from different tables or passages of the source.

What was measured:
[1] = Free energy of hydration predicted with the QM-parameterized force field model (ARROW FF), classical MD and PIMD simulation in a water box; conditions: for Arrow error: Table 5, error of Arrow PIMD8 hydration free energy vs experiment; for Arrow PIMD8 Error: absolute error vs Exp (hydration)
Method in brief: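 Solute decoupled from solvent in a 32×32×32 Å3 water box (PME, 9 Å cutoffs), electrostatics, exchange-repulsion and dispersion switched off together over 15 lambda points with soft-coring. Steepest-descent minimization, 50 ps equilibration, 1 ns NPT production at 1 atm; classical and path-integral MD. Free energy from BAR and TI.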

[2] = implicit solvent model, values received; cited from earlier work
[3] = implicit solvent model, values received; cited from earlier work; remark: listed apart in the source
[4] = Free energy of hydration by COSMO implicit solvent model (MolPro ver. 2012); conditions: absolute error vs Exp (hydration)
Method in brief: (§1)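 Computed, not measured. COSMO: run in MolPro on the dataset. SMD/PCM: predicted values supplied externally. SMD, PCM, COSMO-RS restricted to the overlap with the QM-parameterized force field molecule set.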

[5] = Table 5; free energy of hydration, AMOEBA prediction taken from literature; cited from earlier work
[6] = Free energy of hydration predicted by polarizable AMOEBA force field, from literature; conditions: Table 5; error of AMOEBA hydration free energy vs experiment
[7] = Table 5; free energy of hydration, GAFF prediction taken from literature; cited from earlier work
[8] = experimental, cited from earlier work
[9] = Free energy of hydration by COSMO-RS
Method in brief: as §1

[10] = experimental, cited from earlier work; for Exp (hydration): Table 5
[11] = Free energy of hydration predicted by General Amber Force Field (GAFF), from literature; conditions: Table 5; error of GAFF hydration free energy vs experiment
[12] = Free energy of hydration by Polarizable Continuum Model (PCM); conditions: absolute error vs Exp (hydration)
Method in brief: as §1

[13] = Free energy of solvation in cyclohexane predicted with the QM-parameterized force field model (ARROW FF), MD and PIMD; conditions: Table 4; for CHEX Arrow MD Error: error of MD cyclohexane solvation free energy vs experiment; for CHEX Arrow PIMD4 Error: error of PIMD4 cyclohexane solvation free energy vs experiment
Excerpt: Cyclohexane (CHEX) is nonpolar and equilibrates relatively quickly.
Particle-Mesh Ewald (PME) algorithm was used to compute the electrostatic interactions. A 32×32×32 grid mesh and 5th power spline interpolation order can be used to compute the inverse PME sum. 9 Å cutoffs were used to compute the direct PME sum as well as the exchange and dispersion interactions. Bulk corrections were applied to account for distance cut-off of dispersion interactions. Solvation free energies were computed by decoupling the interactions between the solute and the solvent molecules. Electrostatic, exchange-repulsion and dispersion interactions were switched off simultaneously using a lambda-dependent scaling (a scaling factor power=2 was used) and a soft-coring algorithm (maximal soft-coring radius=1.5 Å, soft-coring radius scaling factor power=1). 15 lambda points unequally spaced (X=0, 0.05, 0.1, 0.2, 0.3, 0.4, 0.5, 0.6, 0.7, 0.75, 0.8, 0.85, 0.9, 0.95, 1.0) were used to decouple the solute-solvent intermolecular interactions.
In some simulations of the QM-parameterized force field molecular simulation process, energy minimization (10,000 steps) using the steepest descent algorithm was initially performed on all the simulation systems. This was followed by a 50 ps equilibration and 1 ns production runs in the isothermal-isobaric ensemble (NPT). […] Pressure was maintained at 1 atm using a MTTK barostat (relaxation time=5 ps). A Multiple Time Step (MTS) algorithm was used to integrate the equations of motion both for the classical and path-integral runs. […] The calculations were performed using the QM-parameterized force field model.
Using the QM-parameterized force field model, the QM-parameterized force field device can compute or predict the solvation free energies using both the Bennett acceptance ratio (BAR) and thermodynamic integration (TI) method with <dH/dλ> values interpolated by cubic splines.

[14] = Free energy of hydration by Solvation Model Dielectric (SMD) implicit solvent model; conditions: absolute error vs Exp (hydration)
Method in brief: as §1

[15] = CHEX/H2O partition coefficient (log D) predicted with the QM-parameterized force field model (ARROW FF)
Method in brief: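 Cyclohexane/water partition coefficients were predicted by molecular simulation with a QM-parameterized force field, with bonded force constants and equilibrium values fitted to MP2/aug-cc-pVTZ energies. Solutes carried neutral functional groups, and results from four independent groups were averaged.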

[16] = Table 3; CHEX/H2O partition coefficient, experimental; cited from earlier work
[17] = Table 3, absolute error of MD hydration free energy vs experiment
[18] = Table 3, absolute error of PIMD8 hydration free energy vs experiment
[19] = Table 4, error of MD hydration free energy vs experiment
[20] = Table 4, error of PIMD8 hydration free energy vs experiment
[21] = Table 3, free energy of solvation in cyclohexane
[22] = Table 4, solvation free energy in cyclohexane
[23] = Table 3, free energy of hydration
[24] = Table 4, neutral amino-acid analogues
[25] = Table 3, absolute error of MD log D vs experiment
[26] = Table 3, absolute error of PIMD log D vs experiment

| SMILES | water Arrow MD Error [1, 17] [kcal/mol] | water Arrow PIMD8 Error [1, 18] [kcal/mol] | Arrow error [1] [kcal/mol] | Arrow PIMD8 Error [1] [kcal/mol] | SMD free energy of hydration [2] [kcal/mol] | PCM free energy of hydration [3] [kcal/mol] | COSMO/Molpro Error [4] [kcal/mol] | AMOEBA [5] [kcal/mol] | AMOEBA error [6] [kcal/mol] | GAFF [7] [kcal/mol] | CHEX Exp (solvation) [8, 21] [kcal/mol] | COSMO-RS error [9] [kcal/mol] | water Exp (hydration) [10, 23] [kcal/mol] | Exp (hydration) ([10]; free energy of hydration) [kcal/mol] | GAFF error [11] [kcal/mol] | PCM Error [12] [kcal/mol] | SMD Error [14] [kcal/mol] | log D Arrow MD Error [15, 25] | log D Arrow PIMD Error [15, 26] | Exp (log D) [16] | other results |
| --- | --- | --- | --- | --- | --- | --- | --- | --- | --- | --- | --- | --- | --- | --- | --- | --- | --- | --- | --- | --- | --- |
| CC(=O)O [AceticAcid] | 0.19 | 0.34 | 0.34 | 0.34 | -5.70 | -4.50 | 2.47 | -5.63 | 1.06 | -5.95 | -2.20 | 0.22 | -6.69 | -6.69 | 0.74 | 2.19 | 0.99 |  |  |  | water Arrow MD Error [1, 19]: 0.19 kcal/mol; water Arrow PIMD8 Error [1, 20]: 0.34 kcal/mol; CHEX Exp (solvation) [8, 22]: -2.20 kcal/mol; water Exp (hydration) [10, 24]: -6.69 kcal/mol; CHEX Arrow MD Error [13]: 0.09 kcal/mol; CHEX Arrow PIMD4 Error [13]: 0.01 kcal/mol |
| CCN [ethylamine] | 1.03 | 0.12 | 0.12 | 0.12 | -3.80 | -2.80 | 1.30 | -4.33 | 0.17 | -3.14 | -2.13 | 0.30 | -4.50 | -4.50 | 1.36 | 1.70 | 0.70 | 0.69 | 0.08 | −1.74 |  |
| CCCCCCCC [Octane] | 1.27 | 0.06 | 0.04 | 0.06 | 2.70 | -0.30 | 3.74 | 1.74 | 1.14 | 3.13 | -5.63 | 0.10 | 2.89 | 2.88 | 0.25 | 3.19 | 0.19 |  |  | 6.25 | log D Arrow MD Error [15]: 0.50; log D Arrow PIMD Error [15]: 0.20 |
| Nc1ccccc1 [Aniline] | 0.17 | 0.06 | 0.06 | 0.06 | -4.80 | -4.10 | 2.13 | -4.78 | 0.76 | -5.92 | -5.52 | 0.23 | -5.54 | -5.54 | 0.38 | 1.44 | 0.74 | 0.18 | 0.13 | −0.01 |  |
| Oc1ccccc1 [Phenol] | 1.02 | 0.18 | 0.18 | 0.18 | -5.20 | -4.00 | 0.92 | -5.05 | 1.57 | -5.67 | -5.56 | 0.62 | -6.62 | -6.62 | 0.95 | 2.62 | 1.42 | 0.65 | 0.21 | −0.78 |  |
| CC(N)=O [Acetamide] | 0.87 | 0.06 | 0.06 | 0.06 | -9.00 | -6.90 | 4.11 | -9.30 | 0.41 | -7.80 | -3.01 | 2.55 | -9.71 | -9.71 | 1.91 | 2.81 | 0.71 |  |  |  | water Arrow MD Error [1, 19]: 0.87 kcal/mol; water Arrow PIMD8 Error [1, 20]: 0.06 kcal/mol; CHEX Exp (solvation) [8, 22]: -3.01 kcal/mol; water Exp (hydration) [10, 24]: -9.71 kcal/mol; CHEX Arrow MD Error [13]: 0.63 kcal/mol; CHEX Arrow PIMD4 Error [13]: 0.58 kcal/mol |
| CN(C)C [trimethylamine] | 1.04 | 0.02 | 0.02 | 0.02 | -2.50 | -1.30 | 0.30 | -2.09 | 1.11 | -2.32 | -2.63 | 2.55 | -3.20 | -3.20 | 0.88 | 1.90 | 0.70 |  |  | −0.42 | log D Arrow MD Error [15]: 0.10; log D Arrow PIMD Error [15]: 0.43 |
| c1ccccc1 [Benzene] | 0.58 | 0.17 | 0.17 | 0.17 | -0.70 | -1.60 | 2.32 | -0.86 | 0.02 | -0.70 | -4.19 | 0.01 | -0.88 | -0.88 | 0.18 | 0.72 | 0.18 |  |  |  |  |
